Results taken from PubChem BioAssay AID330 (DTP/NCI, 2004).
Where “and” joins values, the source holds several entries; their conditions need not be identical. Equal entries are not always repeated. Inconclusive results and toxic doses are left out. The calls were made as follows: active = survival T/C of 150% or more; inactive = T/C below 125% in these data. Square brackets hold non-standard residues; d marks the D form. Peptide text beside a SMILES is read from it. ξ: configuration not given here. ξL = CC(C)CC(N)C(=O)O

Tested on: P388 leukemia ip, CD2F1 mice, survival T/C
Experiment: NCI In Vivo Anticancer Drug Screen. Data for tumor model P388 Leukemia (intraperitoneal) in CD2F1 (CDF1) mice
Conditions: endpoint: median survival time, higher = longer survival
How it was run: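 Mice carrying the transplanted tumor received test compound or vehicle. Survival was recorded in each group, and the value is the treated-group measurement divided by that of the vehicle-treated control group.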

[1] = dose: 50.0 mg/kg/injection, schedule: Q01DX005 (ip), vehicle: Klucel (hydroxypropylcellulose) (HPC)
[2] = dose: 100.0 mg/kg/injection, schedule: Q01DX005 (ip), vehicle: Klucel (hydroxypropylcellulose) (HPC)
[3] = dose: 200.0 mg/kg/injection, schedule: Q01DX005 (ip), vehicle: Klucel (hydroxypropylcellulose) (HPC)
[4] = dose: 50.0 mg/kg/injection, schedule: Q01DX005 (ip), vehicle: saline
[5] = dose: 100.0 mg/kg/injection, schedule: Q01DX005 (ip), vehicle: saline
[6] = dose: 50.0 mg/kg/injection, schedule: Q01DX005 (ip), vehicle: saline with Tween-80
[7] = dose: 100.0 mg/kg/injection, schedule: Q01DX005 (ip), vehicle: saline with Tween-80
[8] = dose: 200.0 mg/kg/injection, schedule: Q01DX005 (ip), vehicle: saline with Tween-80
[9] = dose: 2.5 mg/kg/injection, schedule: Q01DX009 (ip), vehicle: saline
[10] = dose: 5.0 mg/kg/injection, schedule: Q01DX009 (ip), vehicle: saline
[11] = dose: 6.25 mg/kg/injection, schedule: Q01DX009 (ip), vehicle: saline

Measured: T/C

CC(C)=CCOc1ccc2ccc(=O)oc2c1
inactive: dose: 5.0 mg/kg/injection, schedule: Q01DX009 (ip), vehicle: saline with Tween-80 106 % of control | dose: 10.0 mg/kg/injection, schedule: Q01DX009 (ip), vehicle: saline with Tween-80 108 % of control | dose: 20.0 mg/kg/injection, schedule: Q01DX009 (ip), vehicle: saline with Tween-80 103 % of control

CC(C)=Cc1cc(-c2cc(C=C(C)C)[nH]n2)n[nH]1
inactive: dose: 60.0 mg/kg/injection, schedule: Q01DX005 (ip), vehicle: saline with Tween-80 97 % of control | dose: 120.0 mg/kg/injection, schedule: Q01DX005 (ip), vehicle: saline with Tween-80 100 % of control | dose: 240.0 mg/kg/injection, schedule: Q01DX005 (ip), vehicle: saline with Tween-80 102 % of control

COC(=O)/C=C/CNC(C)C
inactive: dose: 25.0 mg/kg/injection, schedule: Q01DX009 (ip), vehicle: water 101 % of control | dose: 50.0 mg/kg/injection, schedule: Q01DX009 (ip), vehicle: water 99 % of control | dose: 100.0 mg/kg/injection, schedule: Q01DX009 (ip), vehicle: water 108 % of control | dose: 200.0 mg/kg/injection, schedule: Q01DX009 (ip), vehicle: water 115 % of control | dose: 400.0 mg/kg/injection, schedule: Q01DX009 (ip), vehicle: water 97 % of control

COc1ccc(/C=C\c2cc(OC)c(OC)c(OC)c2)c(O)c1O
inactive: dose: 3.12 mg/kg/injection, schedule: Q01DX009 (ip), vehicle: saline + Tween-80 + alcohol 124 % of control | dose: 12.5 mg/kg/injection, schedule: Q01DX009 (ip), vehicle: saline + Tween-80 + alcohol 104 % of control and 97 % of control | dose: 22.0 mg/kg/injection, schedule: Q01DX009 (ip), vehicle: saline + alcohol 95 % of control | dose: 50.0 mg/kg/injection, schedule: Q01DX009 (ip), vehicle: saline + Tween-80 + alcohol 109 % of control

O=C1c2c(O)cc(O)cc2OC(c2ccc(O)cc2)C1O (stereo not given)
inactive: dose: 9.75 mg/kg/injection, schedule: Q01DX009 (ip), vehicle: saline 100 % of control | dose: 19.5 mg/kg/injection, schedule: Q01DX009 (ip), vehicle: saline 101 % of control | dose: 39.0 mg/kg/injection, schedule: Q01DX009 (ip), vehicle: saline 102 % of control

N#CCc1cccc2c(=O)cc(-c3ccccc3)oc12
inactive: [1] 106 % of control | [2] 96 % of control | [3] 87 % of control

C=CC(C)NC(=S)NNC(=S)NC (stereo not given)
inactive: [1] 101 % of control | [2] 100 % of control | [3] 101 % of control

CC(C)CC(NC(=O)CN)C(=O)NCC(=O)NCC(=O)O (stereo not given) (H-G[ξL]GG-OH)
inactive: [1] 100 % of control | [2] 102 % of control | [3] 95 % of control

CC(O)C(=O)NCCO (stereo not given)
inactive: [4] 99 % of control | [5] 93 % of control | dose: 200.0 mg/kg/injection, schedule: Q01DX005 (ip), vehicle: saline 100 % of control

O=C1NC(=O)c2cc3ccccc3cc21
inactive: [6] 87 % of control | [7] 87 % of control | [8] 91 % of control

C/C(=N\NC(N)=O)C1(c2ccccc2)CCN(C)CC1
inactive: dose: 100.0 mg/kg/injection, schedule: Q04DX002 (ip), vehicle: Klucel (hydroxypropylcellulose) (HPC) 100 % of control | dose: 200.0 mg/kg/injection, schedule: Q04DX002 (ip), vehicle: Klucel (hydroxypropylcellulose) (HPC) 97 % of control | dose: 400.0 mg/kg/injection, schedule: Q04DX002 (ip), vehicle: Klucel (hydroxypropylcellulose) (HPC) 96 % of control

NS(=O)(=O)c1ccc(N=Cc2cnc3ccccc3c2)cc1
inactive: [9] 100 % of control | [10] 97 % of control | dose: 10.0 mg/kg/injection, schedule: Q01DX009 (ip), vehicle: saline 100 % of control and 91 % of control | dose: 20.0 mg/kg/injection, schedule: Q01DX009 (ip), vehicle: saline 93 % of control

CC(C)(C)OC(=O)C(Cc1cnc2nc(N)nc(N)c2n1)C(=O)OC(C)(C)C
inactive: dose: 3.13 mg/kg/injection, schedule: Q01DX009 (ip), vehicle: distilled water + Tween-80 103 % of control | dose: 6.25 mg/kg/injection, schedule: Q01DX009 (ip), vehicle: distilled water + Tween-80 98 % of control | dose: 12.5 mg/kg/injection, schedule: Q01DX009 (ip), vehicle: distilled water + Tween-80 95 % of control | dose: 25.0 mg/kg/injection, schedule: Q01DX009 (ip), vehicle: distilled water + Tween-80 95 % of control | dose: 50.0 mg/kg/injection, schedule: Q01DX009 (ip), vehicle: distilled water + Tween-80 93 % of control

O=C(N/N=C/c1ccccc1Cl)C(=O)Nc1cccc(C(F)(F)F)c1
inactive: [1] 95 % of control | [2] 96 % of control | [3] 99 % of control

COc1c(NC(C)=O)c2c(c([N+](=O)[O-])c1OC)C(=O)OC2
inactive: [1] 106 % of control | [2] 104 % of control | [3] 110 % of control

CCCCCCCCCCC[N+]1(CC)CCCCC1
inactive: dose: 0.78 mg/kg/injection, schedule: Q01DX009 (ip), vehicle: saline 112 % of control and 93 % of control | dose: 1.56 mg/kg/injection, schedule: Q01DX009 (ip), vehicle: saline 100 % of control and 102 % of control | dose: 3.12 mg/kg/injection, schedule: Q01DX009 (ip), vehicle: saline 112 % of control and 97 % of control | [11] 124 % of control

COc1cc(NCCN(C)C(C)Cc2ccccc2)c2ncccc2c1 (stereo not given)
inactive: [4] 106 % of control | [5] 104 % of control

CCCCOCN(CC(CC)CCCC)CC(CC)CCCC (stereo not given)
inactive: [6] 98 % of control | [7] 100 % of control | [8] 104 % of control

CC(=O)c1c(-c2ccc(F)cc2)c(-c2ccc(F)cc2)n[nH]c1=O
inactive: [6] 100 % of control | [7] 100 % of control | [8] 97 % of control

c1ccc2c(c1)Sc1ccccc1N2CC1CN2CCC1CC2 (stereo not given)
inactive: dose: 6.25 mg/kg/injection, schedule: Q01DX009 (ip), vehicle: saline with Tween-80 107 % of control | dose: 12.5 mg/kg/injection, schedule: Q01DX009 (ip), vehicle: saline with Tween-80 98 % of control and 114 % of control | dose: 25.0 mg/kg/injection, schedule: Q01DX009 (ip), vehicle: saline with Tween-80 112 % of control and 123 % of control | dose: 50.0 mg/kg/injection, schedule: Q01DX009 (ip), vehicle: saline with Tween-80 104 % of control

CCCOC(=O)Nc1ccc2nc(N(C)C)sc2c1
inactive: dose: 50.0 mg/kg/injection, schedule: Q01DX009 (ip), vehicle: suspension in saline 99 % of control | dose: 100.0 mg/kg/injection, schedule: Q01DX009 (ip), vehicle: suspension in saline 97 % of control | dose: 200.0 mg/kg/injection, schedule: Q01DX009 (ip), vehicle: suspension in saline 102 % of control

CCOC(=O)Nc1cc(NC/C(=N/O)c2ccc(OC)cc2)c([N+](=O)[O-])c(N)n1
inactive: dose: 12.5 mg/kg/injection, schedule: Q01DX005 (ip), vehicle: saline 98 % of control | dose: 25.0 mg/kg/injection, schedule: Q01DX005 (ip), vehicle: saline 94 % of control | [4] 94 % of control

C=C1C2CCC3C4(C)CC(OC5OC(CO)C(OS(=O)(=O)O)C(OS(=O)(=O)O)C5OC(=O)CC(C)C)CC(C(=O)O)(C(=O)O)C4CCC3(C2)C1O (stereo not given)
inactive: dose: 1.25 mg/kg/injection, schedule: Q01DX009 (ip), vehicle: saline 117 % of control | [9] 117 % of control | [10] 114 % of control

C/C(=N\N)C1C(=O)c2ccccc2C1=O
inactive: [11] 100 % of control | dose: 12.5 mg/kg/injection, schedule: Q01DX009 (ip), vehicle: saline 105 % of control | dose: 25.0 mg/kg/injection, schedule: Q01DX009 (ip), vehicle: saline 101 % of control and 86 % of control | dose: 50.0 mg/kg/injection, schedule: Q01DX009 (ip), vehicle: saline 98 % of control
